The source of these data is ChEMBL document CHEMBL2331348, “Positive allosteric modulators of nicotinic acetylcholine receptor” (ACS Med Chem Lett, 2013).

For this test, the target named is Neuronal acetylcholine receptor subunit alpha-7 (Homo sapiens, UniProt P36544). Description: Positive allosteric modulator activity at human alpha7 nAChR expressed in rat GH4C1 cells assessed as potentiation of acetylcholine-induced response by FDSS Ca2+ assay. It counts as cell-based, GH4-C1.
Chain of Neuronal acetylcholine receptor subunit alpha-7 (P36544 whole entry): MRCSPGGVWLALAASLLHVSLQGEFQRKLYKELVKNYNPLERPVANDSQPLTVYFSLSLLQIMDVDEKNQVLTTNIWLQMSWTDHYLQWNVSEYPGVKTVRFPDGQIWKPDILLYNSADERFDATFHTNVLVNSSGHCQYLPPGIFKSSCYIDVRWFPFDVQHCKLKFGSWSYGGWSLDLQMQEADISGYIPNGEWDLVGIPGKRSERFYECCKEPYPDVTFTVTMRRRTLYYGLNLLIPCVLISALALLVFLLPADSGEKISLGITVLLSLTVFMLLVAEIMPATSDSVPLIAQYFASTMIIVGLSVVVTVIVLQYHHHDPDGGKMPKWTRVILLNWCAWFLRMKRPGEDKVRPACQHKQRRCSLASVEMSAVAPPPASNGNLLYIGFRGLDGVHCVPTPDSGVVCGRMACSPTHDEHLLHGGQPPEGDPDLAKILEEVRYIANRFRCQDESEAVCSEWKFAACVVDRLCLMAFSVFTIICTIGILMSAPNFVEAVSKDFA

For orientation: EC50 means the concentration needed to bring the measured effect to its halfway point. On to `C[C@H](NC(=O)[C@H]1C[C@@H]1c1ccccc1)c1ccc(S(C)(=O)=O)nc1`, for which the EC50 worked out at 2 µM.
